Measurements published in paper PMC3413639 (PLoS ONE, 2012).
Where two headings read alike, the source gives them in different places.

Assays:
[1] = molecular target: T1, 5-HT1A receptors (Rattus norvegicus, UniProt P19327); test: [11C]WAY-100635-PET of rats treated with 5,7-DHT, a toxicant for 5-HT neurons; settings: 150 µg into right lateral ventricle, scan more than 2 weeks later
T1 sequence (P19327 1-422): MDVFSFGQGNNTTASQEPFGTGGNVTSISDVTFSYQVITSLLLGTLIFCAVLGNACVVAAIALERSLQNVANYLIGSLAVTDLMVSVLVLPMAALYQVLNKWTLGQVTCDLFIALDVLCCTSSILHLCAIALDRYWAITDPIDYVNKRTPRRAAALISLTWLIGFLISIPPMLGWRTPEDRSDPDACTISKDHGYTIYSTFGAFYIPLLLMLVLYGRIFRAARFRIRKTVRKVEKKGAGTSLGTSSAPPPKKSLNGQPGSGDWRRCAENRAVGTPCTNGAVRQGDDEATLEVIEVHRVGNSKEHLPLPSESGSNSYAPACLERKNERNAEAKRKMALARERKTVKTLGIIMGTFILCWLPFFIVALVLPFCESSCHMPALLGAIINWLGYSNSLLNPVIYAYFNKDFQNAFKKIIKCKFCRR

[2] = molecular target: T1, 5-HT1A receptors; test: Autoradiographic [35S]GTPγS binding in rat brain sections; format: biochemical; set-up: Twenty-micrometer-thick frozen brain sections were preincubated; from tissue; host or cells: rat brain (hippocampus and raphe nucleus): frozen sections or living animals
Procedure: Autoradiographic procedures were performed as described previously, with some modifications. The sections were preincubated for 15 min in 50 mM 4-(2-hydroxyethyl)-1-piperazineethanesulfonic acid (HEPES; pH 7.4) containing 10 mM NaCl, 3 mM MgCl2 and 0.2 mM ethylene glycol tetraacetic acid. A second preincubation using the same buffer containing 2 mM GDP was performed for 15 min. The sections were subsequently incubated in the same buffer containing 2 mM GDP, 0.2 mM dithiothreitol and 0.04 nM [^35S]GTPγS for 120 min. Basal [^35S]GTPγS binding was defined in the absence of test drugs. […] Nonspecific binding was estimated using 10 µM nonradioactive GTPγS. The incubation was terminated by ice-cold 50 mM HEPES (pH 7.0). The sections were desalted with ice-cold distilled water, dried, and placed in contact with an imaging plate for 2 days. Signal detection and image analysis were performed as described above.

[3] = tested on: 5-HT1A receptors; settings: maximal safe dose; cited from earlier work
[4] = molecular target: T1, 5-HT1A receptors; test: In vitro ARG, inhibition of [11C]WAY-100635 binding in rat brain sections; set-up: Twenty-micrometer-thick frozen brain sections were preincubated; from tissue; host or cells: rat brain (hippocampus and raphe nucleus): frozen sections or living animals; settings: hippocampus and raphe nucleus; up to 1000 nM
Procedure: Rats were sacrificed by decapitation. Twenty-micrometer-thick frozen brain sections were preincubated for 30 min in 50 mM Tris-HCl (pH 7.4) containing 1 mM MnCl2. […] Subsequently, the sections were rinsed twice with ice-cold Tris-HCl buffer for 5 min and then desalted with ice-cold distilled water for 10 sec. These samples were warmly blow-dried and placed in contact with an imaging plate (Fuji Film, Tokyo, Japan) for 60 min. Signals on the imaging plate were detected by BAS5000 system (Fuji Film).

[5] = rats; cited from earlier work
[6] = molecular target: T1, 5-HT1A receptors; test: [11C]WAY-100635-PET, BPND and 5-HT1A receptor occupancy; format: in vivo; set-up: Twenty-micrometer-thick frozen brain sections were preincubated; from tissue; host or cells: rat brain (hippocampus and raphe nucleus): frozen sections or living animals; settings: for BPND Hippocampus / BPND Raphe: [11C]WAY-100635; for receptor occupancy at 3 mg/kg / ED50 / receptor occupancy at 1 mg/kg / receptor occupancy at 10 mg/kg / receptor occupancy at 30 mg/kg: rat, ip; for ED50: read-out: ED50 (5-HT1A receptor occupancy), intraperitoneal, PET
Procedure: All PET scans were carried out using a microPET Focus 220 scanner (Siemens Medical Solutions USA, Knoxville, TN). The rats were anesthetized with 1.5–2% isoflurane in air (2 L/min flow rate). […] All list-mode data were stored into 3D sinograms, which were then Fourier-rebinned into 2D sinograms (26 frames: 4×1, 8×2, and 14×5 min). Images were reconstructed using 2D-filtered back-projection with a 0.5-mm Hanning filter. All PET images were manually coregistered to the MRI template by spatial translation and rotation of original PET images without geometric expansion and contraction. ROIs were placed on the hippocampus and raphe nucleus using PMOD® image analysis software (PMOD Group, Zurich, Switzerland) with reference to the MRI template. Fine-tuning of the location of ROIs was then performed based on PET images at an early phase (0–30 min) of the scan in order to compensate for small mismatches between coregistered PET and MR images. The cerebellum was used as reference tissue because of its negligible density of 5-HT1A receptors.

[7] = molecular target: T1, 5-HT1A receptors; test: Ex vivo ARG, 5-HT1A receptor occupancy after drug administration; format: in vivo; set-up: Twenty-micrometer-thick frozen brain sections were preincubated; from tissue; host or cells: rat brain (hippocampus and raphe nucleus): frozen sections or living animals; settings: for ED50: rat, ip, read-out: ED50 (5-HT1A receptor occupancy), intraperitoneal, ex vivo ARG
Procedure: Animals were then killed by decapitation 5 h and 30 min after their administration, respectively. Autoradiographic analysis was performed using procedures similar to in vitro ARG except for incubation temperature (37°C) and times for preincubation (30 sec), incubation (5 min) and rinsing (1 min). […] The doses of these drugs at half-maximal effect (ED50) were determined according to the following relationship: [drawing 2] where D is the dose of the drug.

[8] = humans; cited from earlier work
[9] = 1 mg/kg intraperitoneal, about 30 min before scan, mean ± S.E.
[10] = 3 mg/kg intraperitoneal + 30 mg/kg fluvoxamine (FLV) oral 30 min before pindolol, mean ± S.E.
[11] = 3 mg/kg intraperitoneal, about 30 min before scan, mean ± S.E.
[12] = 10 mg/kg intraperitoneal, about 30 min before scan, mean ± S.E.
[13] = 30 mg/kg intraperitoneal, about 30 min before scan, mean ± S.E.
[14] = read-out: Occupancy (%) Hippocampus

## NCCc1c[nH]c2c(O)cc(O)cc12 [5,7-DHT, 5,7-dihydroxytryptamine, reference compound]
[1]; hippocampus
  BPND for [11C]WAY-100635 after toxicant treatment: almost unchanged
[1]; raphe nucleus
  BPND for [11C]WAY-100635 after toxicant treatment: profoundly decreased

## CCCN(CCC)C1CCc2cccc(O)c2C1 (stereo not drawn) [8-OH-DPAT, 8-hydroxy-2-(di-n-propylamino) tetralin]
[2]; hippocampus and raphe nucleus, addition of agonist
  [35S]GTPγS binding: enhanced
[2]; raphe nucleus, 1 µM, p<0.01
  [35S]GTPγS binding compared with 1 µM WAY-100635: significantly increased

## CC(C)NCC(O)COc1cccc2[nH]ccc12 (stereo not drawn) [Pindolol, reference compound]
[3]
  Occupancy of 5-HT1A autoreceptors: 60%
[4]
  Blockage of 5-HT1A receptors by excess amounts of drug: near-complete blockage
[5]
  Proportion of protein-bound drug in plasma or serum: 52%
[6]; [9]
  BPND Hippocampus: 4.787±0.676
  BPND Raphe: 1.129±0.164
[6]; [10]
  BPND Hippocampus: 3.670±0.315
  BPND Raphe: 0.783±0.178
[6]; [11]
  BPND Hippocampus: 3.517±0.119
  BPND Raphe: 0.752±0.093
[6]; [12]
  BPND Hippocampus: 2.190±0.757
  BPND Raphe: 0.459±0.153
[6]; 30 mg/kg intraperitoneal + 30 mg/kg fluvoxamine (FLV) oral 30 min before pindolol
  BPND Raphe: 0
[6]; 30 mg/kg intraperitoneal + 30 mg/kg fluvoxamine (FLV) oral 30 min before pindolol, mean ± S.E.
  BPND Hippocampus: 0.343±0.065
[6]; [13]
  BPND Hippocampus: 0.441±0.173
  BPND Raphe: 0.029±0.029
[6]; read-out: Difference in occupancy between hippocampus and raphe nucleus
  receptor occupancy at 3 mg/kg: ~50%
[6]; hippocampus
  ED50: 5.6 mg/kg
[6]; raphe nucleus
  ED50: 2.4 mg/kg
[6]; [14]
  receptor occupancy at 1 mg/kg: 15 ± 11.8%
  receptor occupancy at 3 mg/kg: 37 ± 5.6%
  receptor occupancy at 10 mg/kg: 58.1 ± 18.4%
  receptor occupancy at 30 mg/kg: 91.8 ± 3.4%
[6]; read-out: Occupancy (%) Raphe
  receptor occupancy at 1 mg/kg: 33.7 ± 14.5%
  receptor occupancy at 3 mg/kg: 57.3 ± 2.8%
  receptor occupancy at 10 mg/kg: 69.6 ± 14.6%
  receptor occupancy at 30 mg/kg: 98.3 ± 1.7%
[7]; intraperitoneal, 30 min after administration, irrespective of region
  5-HT1A receptor binding (occupancy), dose-dependent up to: ~70%
[7]; hippocampus
  ED50: 8.5 mg/kg
[7]; raphe nucleus
  ED50: 7.3 mg/kg
[8]
  Proportion of protein-bound drug in plasma or serum: 57%
[2]; high concentrations, hippocampus and raphe nucleus, p>0.05
  Slight increase in [35S]GTPγS binding: not statistically significant

## COCCCC/C(=N\OCCN)c1ccc(C(F)(F)F)cc1 [fluvoxamine, reference compound]
[6]; 30 mg/kg oral, 30 min before pindolol treatment
  Effect on 5-HT1A receptor occupancies by pindolol: had no effect
